# Where a name gives a salt, the structure may show the parent alone. Read-outs that look alike come from different tables or passages of the source.
# Key:
# [1] = Acute toxicity (mortality during 7 days, oral); settings: mouse, in vivo, male CD1 mice, fasted 16 hours, mortality noted during 7 days
# Experimental: The test is carried out on male mice (CD1 Charles Rivers) weighing 22 to 24 g, which have gone without food for 16 hours. The products are administered by oral route at a dose of 1000, 500, 250, 125, 62, 31 and 16 mg/kg. The mortality is noted during the 7 days following the treatment.
# [2] = tested on: isolated ileum of a guinea-pig; assay: Test on the isolated ileum of a guinea-pig (agonist activity); assay type: cell-based; settings: Cavia porcellus, read-out: pD2 (negative logarithm of the dose which produces 50% of the maximum effect) (converted)
# Experimental: Pieces of ileum are removed from guinea-pigs which have been killed by decapitation. The isolated ileum is placed in 10 cm^3 of Tyrode's solution at 37° C. and aerated by a mixture of oxygen (95%) and carbon dioxide (5%). The contractions due to the products are recorded using a sensor connected to a polygraph. The products being tested are added, in concentrations comprised between 1.10^-3 M and 1.10^-8 M/1.
# The products presenting a contracting effect are tested vis-a-vis atropine and hexamethonium to establish if the activity is of "muscarinic" or "nicotinic" type.
# The agonist activity is expressed in pD2 (negative logarithm of the dose which produces 50% of the maximum effect).
# [3] = tested on: male mice (CD1 Charles Rivers); assay: Hypothermic activity; assay type: in vivo; settings: for ED (-1 C body temperature): Mus musculus, read-out: Effective dose (-1° C.)
# Experimental: The test is carried out on male mice (CD1 Charles Rivers) weighing 25 to 30 g, and without food for 6 hours.
# The body temperature is noted using a thermocouple placed in the rectum to about 1.5 cm and connected to an electrical temperature recorder. […]
# The degree of hypothermia is evaluated as the difference between the treated animals and the control animals and the dose necessary to reduce the body temperature by 1° C. is determined.
# The duration of action of the products is determined by using doses capable of reducing the temperature by 1° to 1.2° C.
# Diarrheic activity = assay: Diarrheic activity; set-up: species or system mice; settings: mouse, in vivo
# Experimental: The test is carried out on male mice (CD1 Charles Rivers) weighing 25 to 30 g, and without food for 6 hours. The product, dissolved at 5% in methocel, is administered by oral route, using an oesophagus probe.
# Control animals receive only the excipient (20 ml/kg).
# After treatment, the animals are put separately into cages, the bottom of which is covered with absorbent paper, and are observed for 30, 60, 120 and 180 minutes.
# The absorbent sheets of paper are changed after each observation.
# The consistency of the faeces is evaluated according to the Randall and Baruth method (Arch. Int. Pharmacodyn., 220, 94, 1976) in accordance with the following scale of values.
# 1: slightly soft faeces with or without a damp ring,
# 2: slightly soft faeces with presence of a well-defined damp ring,
# 3: soft faeces with presence of a large damp ring,
# 4: faeces without consistency with presence of a very large camp ring.
# For each product, the dose has been noted which cause diarrohea in 50% of the animals according to the Miller and Tainter method (Proc. Soc. Exp. Biol. Med., 57, 261, 1944).
# [4] = isolated guinea-pig ileum, contraction, Tyrode's solution at 37° C.
# [5] = sc, sub-cutaneous route, dose necessary to reduce body temperature by 1° C.
# [6] = oral route, dose necessary to reduce body temperature by 1° C.
compound,measurement,setting,value
"CON=C(C)C1CN2CCC1CC2 (stereo not shown) [Example 4, (1-azabicyclo-[2,2,2]-octan-3-yl)-ethanone O-methyloxime hydrochloride]",LD50 at 168 h,[1],75 mg/kg
same,EC50,[2]; [4],95.5 nM
same,ED (-1 C body temperature),[3]; [5],0.33 mg/kg
same,ED (-1 C body temperature),[3]; [6],0.33 mg/kg
same,ED50 at 3 h,Diarrheic activity; po,3 mg/kg
"CC(=O)OC1CN2CCC1CC2 (stereo not shown) [Aceclidine, HCl]",LD50 at 168 h,[1],250 mg/kg
same,EC50,[2],105 nM
same,duration of action: body temperature difference from controls,"[3]; 2.50 mg/kg sub-cutaneous, 30 min",-1.0 °C
same,duration of action: body temperature difference from controls,"[3]; 2.50 mg/kg sub-cutaneous, 60 min",-0.1 °C
same,duration of action: body temperature difference from controls,"[3]; 2.50 mg/kg sub-cutaneous, 120 min",+0.1 °C
same,duration of action: body temperature difference from controls,"[3]; 2.50 mg/kg sub-cutaneous, 180 min",+0.1 °C
same,duration of action: body temperature difference from controls,"[3]; 7.50 mg/kg oral, 30 min",-1.1 °C
same,duration of action: body temperature difference from controls,"[3]; 7.50 mg/kg oral, 60 min",-0.3 °C
same,duration of action: body temperature difference from controls,"[3]; 7.50 mg/kg oral, 180 min",+0.1 °C
same,ED (-1 C body temperature),[3]; po,6.4 mg/kg
same,ED (-1 C body temperature),[3]; sc,2.1 mg/kg
same,ED50 at 3 h,"Diarrheic activity; male CD1 mice, fasted 6 hours, oral, observed up to 180 minutes, read-out: ED50 (dose which causes diarrhoea in 50% of the animals)",4 mg/kg
"CON=CC1CN2CCC1CC2 (stereo not shown) [Example 1, 1-azabicyclo-[2,2,2]-octan-3-carboxaldehyde O-methyloxime]",LD50 at 168 h,[1],30 mg/kg
same,EC50,[2]; [4],50.1 nM
same,duration of action: body temperature difference from controls,"[3]; 0.25 mg/kg oral, 30 min",-1.1 °C
same,duration of action: body temperature difference from controls,"[3]; 0.25 mg/kg oral, 60 min",-1.0 °C
same,duration of action: body temperature difference from controls,"[3]; 0.25 mg/kg sub-cutaneous, 30 min",-1.2 °C
same,duration of action: body temperature difference from controls,"[3]; 0.25 mg/kg sub-cutaneous, 60 min",-1.1 °C
same,ED (-1 C body temperature),[3]; [5],0.18 mg/kg
same,ED (-1 C body temperature),[3]; [6],0.19 mg/kg
same,ED50 at 3 h,Diarrheic activity; po,1.1 mg/kg
"CCON=CC1CN2CCC1CC2 (stereo not shown) [Example 2, 1-azabicyclo-[2,2,2]-octan-3-carboxaldehyde O-ethyloxime]",LD50 at 168 h,[1],150 mg/kg
"C#CCON=CC1CN2CCC1CC2 (stereo not shown) [Example 3, 1-azabicyclo-[2,2,2]-octan-3-carboxaldehyde O-2-propynyloxime]",LD50 at 168 h,[1],40 mg/kg

# Reference: US5183893A, “1-azabicycloalkane derivatives, their preparation process and their use as medicaments” (Roussel Uclaf, priority 1988, dated 1993)
